Measurements: patent US20050163841A1, “Compositions and dosage forms for enhanced absorption of 3-amino-n-butyl-phosphinic acid” (priority 2003, published 2005)
Like-named read-outs stand apart in the source and are kept apart here.

Legend:
[1] = cited from earlier work; for dose-corrected AUC: read from FIG. 4 of Gleitner 1
[2] = Human pharmacokinetics of 3-aminopropyl-n-butyl-phosphinic acid (Gleitner 1); type: in vivo, Humans; details: implied from urinary excretion after oral administration
[3] = test system: patients suffering from Mild Cognitive Impairment (MCI); details: 600 mg tid; cited from earlier work

absorption through the oral route [2]: 38%
SMILES: CCCCP(=O)(O)CCCN [3-aminopropyl-n-butyl-phosphinic acid]
dose-corrected AUC ([1]; 600 mg dose): 40 μmol·h/(L·mmol)
dose-corrected AUC ([1]; 2100 mg dose): 20 μmol·h/(L·mmol)
reduction of drug systemic availability after food intake ([1]; after food intake): 30%
cumulative urinary excretion rate ([1]; within 24 hours of i.v. administration): 99.5+/−6.4 % of the dose
cumulative urinary excretion rate ([1]; within 24 hours of oral administration): 38+/−13 % of the dose
cognition in patients with Mild Cognitive Impairment [3]: showed improvements in multiple cognitive domains
